Source: patent US20180118708A1, “CYCLIC COMPOUND” (Takeda Pharmaceutical Company Limited, priority 2015, published 2018)

Columns and labels:
[1] = system: TNFα; assay: Effect with respect to blood TNF-α concentration elevation by LPS stimulation; assay type: in vivo; details: oral, female BALB/c mice, LPS 5 mg/kg i.p. one hour after compound, serum sampled one hour later, vs control group
Source text: Effect With Respect to Blood TNF-α Concentration Elevation by LPS Stimulation
Various kinds of cytokines are produced in vivo accompanying inflammatory response and abnormal immunity or the like. Therefore, the action of test compound with respect to blood TNFa concentration rise was investigated using laboratory animals.
Female BALB/c mice (6 weeks old) were purchased, and, after preliminary rearing for about 1 week, the mice were divided into groups of four animals. […] Solvent was administered to control group in the same way. LPS (5 mg/kg) was administered intraperitoneally to the test group and the control group one hour after the administration of the test compound or solvent, and blood was sampled one hour later. The serum was separated from the obtained blood, and the TNFα concentration in the serum was measured using an assay kit made by R&D Systems Inc. The inhibition rates of the test group with respect to the control group are shown in Table 3.

[2] = biological target: T1, TLR4 (Mus musculus, UniProt Q9QUK6); assay: Inhibitory effect with respect to NO production (LPS/interferon γ stimulated RAW264.7 cells); assay type: cell-based, murine; details: test compound 100 nM, LPS 1.25 ng/mL + mouse interferon γ 0.2 ng/mL, nitrite ion in culture supernatant
T1 construct: endogenous in cells; host or cells: RAW264.7 (murine macrophage cell line)
T1 sequence (Q9QUK6 26-835): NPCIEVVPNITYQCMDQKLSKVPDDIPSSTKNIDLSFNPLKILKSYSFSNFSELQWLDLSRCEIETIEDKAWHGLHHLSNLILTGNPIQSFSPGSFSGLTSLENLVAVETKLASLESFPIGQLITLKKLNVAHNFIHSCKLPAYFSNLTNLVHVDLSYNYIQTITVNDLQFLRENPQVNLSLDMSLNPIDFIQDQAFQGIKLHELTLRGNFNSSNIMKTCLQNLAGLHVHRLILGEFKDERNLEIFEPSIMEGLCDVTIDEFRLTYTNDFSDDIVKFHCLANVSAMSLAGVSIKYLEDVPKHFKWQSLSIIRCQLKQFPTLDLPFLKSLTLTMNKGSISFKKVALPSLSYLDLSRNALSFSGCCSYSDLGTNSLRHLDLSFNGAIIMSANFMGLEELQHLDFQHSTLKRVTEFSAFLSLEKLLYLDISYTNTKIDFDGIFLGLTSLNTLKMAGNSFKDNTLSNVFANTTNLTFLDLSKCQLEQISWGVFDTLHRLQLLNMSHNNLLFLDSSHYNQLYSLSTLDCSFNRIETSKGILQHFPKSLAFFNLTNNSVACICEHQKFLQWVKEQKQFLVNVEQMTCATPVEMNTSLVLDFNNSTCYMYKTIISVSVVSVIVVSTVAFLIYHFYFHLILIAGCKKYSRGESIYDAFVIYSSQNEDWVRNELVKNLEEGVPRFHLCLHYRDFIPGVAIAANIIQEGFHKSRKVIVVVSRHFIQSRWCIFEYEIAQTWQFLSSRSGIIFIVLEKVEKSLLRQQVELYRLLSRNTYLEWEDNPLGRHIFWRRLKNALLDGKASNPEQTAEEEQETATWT
T1 sequence (Q9JHF9 19-160 partner): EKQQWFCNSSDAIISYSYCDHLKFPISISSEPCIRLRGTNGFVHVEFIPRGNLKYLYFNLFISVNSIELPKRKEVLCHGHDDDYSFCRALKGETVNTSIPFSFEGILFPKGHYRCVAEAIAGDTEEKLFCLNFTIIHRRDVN
Protocol: Inhibitory Effect With Respect to NO Production
The inhibitory effect on TLR4 was determined using the inhibition rate due to the test compound with respect to NO production as a result of addition of lipopolysaccharide (LPS) using murine macrophage cell line RAW264.7. The cells were adjusted to 2×10^6 cells/mL using RPM1-1640 culture medium (phenol red free) supplemented with 10% inactivated bovine fetal serum, and were plated on 384 well plate so as to contain 6×10^4 cells/30 μL per well. Thereafter the cells were cultured at 37° C. overnight under 5% CO2/95% air. The test compound dissolved in DMSO was diluted 200 times using RPM1-1640 culture medium and adjusted so as to form a compound concentration of 500 nM. The prepared test compound 10 μL (final concentration 100 nM) was added to the cells, and LPS (Sigma) and mouse interferon γ (Wako Pure Chemicals) were added in amounts of 10 μL so as to form final concentrations of 1.25 ng/mL and 0.2 ng/mL respectively. The cells were further cultured overnight, and then the nitrite ion (stable NO metabolite) concentration in the culture supernatant was measured as an index of NO production. The nitrite ion concentration was assayed by adding 10 μL of 20 μg/mL 2,3-diamino naphthalene (DAN) dissolved in 0.2N HCl to 20 μL culture supernatant, incubating at room temperature for ten minutes, and then adding 10 μL of 0.5N NaOH, and measuring the fluorescent value at 460 nm (excitation wavelength 355 nm) using an EnVision plate reader (Perkin Elmer). The NO production inhibition rate (%) was calculated using the value without the addition of stimulating agent as control of 100% inhibition, and the value without the addition of the compound as control of 0% inhibition.

| Structure (SMILES) | NO production inhibitory effect at 100 nM (% inhibition) ([2]; 0.1 µM) | NO production inhibitory effect at 100 nM (% inhibition) [2] [% inhibition] | Blood TNFα inhibition rate (% inhibition) ([1]; Dose 10 mg/kg) | Blood TNFα inhibition rate (% inhibition) ([1]; Dose 20 mg/kg) |
| --- | --- | --- | --- | --- |
| CCOC(=O)C1=CC2(CCC1S(=O)(=O)Cc1cccc(Cl)c1)O[C@H](CO)[C@@H](CO)O2 (stereo partly drawn) [Compound 3, ethyl (2R,3R)-8-((3-chlorobenzyl)sulfonyl)-2,3-bis(hydroxymethyl)-1,4-dioxaspiro[4.5]dec-6-ene-7-carboxylate] | – | 100 | – | 84.9 |
| CCOC(=O)C1=CC2(CCC1S(=O)(=O)Cc1cccc(Cl)c1)O[C@@H](CO)[C@H](CO)O2 (stereo partly drawn) [Compound 24, ethyl (2S,3S)-8-((3-chlorobenzyl)sulfonyl)-2,3-bis(hydroxymethyl)-1,4-dioxaspiro[4.5]dec-6-ene-7-carboxylate] | – | 100 | – | 91.5 |
| CCOC(=O)C1=CC2(CCC1S(=O)(=O)Cc1cccc(C)c1)O[C@@H](CO)[C@H](CO)O2 (stereo partly drawn) [Compound 25, ethyl (2S,3S)-2,3-bis(hydroxymethyl)-8-((3-methylbenzyl)sulfonyl)-1,4-dioxaspiro[4.5]dec-6-ene-7-carboxylate] | – | 98 | – | 93.8 |
| CCOC(=O)C1=CC2(CC[C@H]1S(=O)(=O)Cc1cccc(Cl)c1)O[C@H](CO)[C@@H](CO)O2 [Compound 30, ethyl (2R,3R,8R)-8-((3-chlorobenzyl)sulfonyl)-2,3-bis(hydroxymethyl)-1,4-dioxaspiro[4.5]dec-6-ene-7-carboxylate] | – | 106 | – | – |
| CCOC(=O)C1=CC2(CC[C@H]1S(=O)(=O)Cc1ccccc1Cl)O[C@H](CO)[C@@H](CO)O2 [Compound 31, ethyl (2R,3R,8R)-8-((2-chlorobenzyl)sulfonyl)-2,3-bis(hydroxymethyl)-1,4-dioxaspiro[4.5]dec-6-ene-7-carboxylate] | – | 103 | – | – |
| CCOC(=O)C1=CC2(CC[C@H]1S(=O)(=O)Cc1ccccc1Cl)O[C@@H](CO)[C@H](CO)O2 [Compound 32, ethyl (2S,3S,8R)-8-((2-chlorobenzyl)sulfonyl)-2,3-bis(hydroxymethyl)-1,4-dioxaspiro[4.5]dec-6-ene-7-carboxylate] | – | 114 | – | – |

The next lines start with results.

| NO production inhibitory effect at 100 nM (% inhibition) ([2]; 0.1 µM) | NO production inhibitory effect at 100 nM (% inhibition) [2] [% inhibition] | Structure (SMILES) | Blood TNFα inhibition rate (% inhibition) ([1]; Dose 10 mg/kg) | Blood TNFα inhibition rate (% inhibition) ([1]; Dose 20 mg/kg) |
| --- | --- | --- | --- | --- |
| 100 | – | CCOC(=O)C1=CC2(CCC1S(=O)(=O)Cc1ccc(F)cc1Cl)O[C@@H](CO)[C@H](CO)O2 (single isomer, unassigned) [Compound 7] | 92.4 | – |
| 100 | – | CCOC(=O)C1=CC2(CCC1S(=O)(=O)Cc1ccc(F)cc1Cl)O[C@H](CO)[C@@H](CO)O2 (single isomer, unassigned) [Compound 14] | 82.8 | – |
| – | 107 | CCOC(=O)C1=CC2(CCC1S(=O)(=O)Cc1ccc(F)cc1Cl)O[C@@H](CO)[C@H](CO)O2 (stereo partly drawn) [Compound 1, ethyl (2S,3S)-8-((2-chloro-4-fluorobenzyl)sulfonyl)-2,3-bis(hydroxymethyl)-1,4-dioxaspiro[4.5]dec-6-ene-7-carboxylate] | – | 83.3 |
| – | 106 | CCOC(=O)C1=CC2(CCC1S(=O)(=O)Cc1ccc(F)cc1Cl)O[C@H](CO)[C@@H](CO)O2 (stereo partly drawn) [Compound 2, ethyl (2R,3R)-8-((2-chloro-4-fluorobenzyl)sulfonyl)-2,3-bis(hydroxymethyl)-1,4-dioxaspiro[4.5]dec-6-ene-7-carboxylate] | – | 84.5 |
